Measurements reported in patent US20140154735A1, “TUMOUR CELL AND TISSUE CULTURE” (CAPSANT NEUROTECHNOLOGIES LTD., priority 2011, published 2014).

Tests used:
[1] = tested on: LN18-eGFP clusters; assay: 5-ALA staining of GBM(LN18-eGFP)/brain co-cultures; format: cell-based, human; conditions: 100 μg/ml, 24 hours
Text: 5-aminolevulinic acid (5-ALA) can be used to visualize tumourous tissue during neurosurgical procedures. The intraoperative use of this guiding method may reduce the tumour residual volume and prolong progression-free survival in patients suffering from brain tumours. GBM(LN18-eGFP)/brain co-cultures as prepared in Example 4 were stained with 5-ALA to see whether, as in human tumours, 5-ALA could specifically stain the tumour cells.
Aminolevulinic acid hydrochloride (ALA) (Sigma product number A3785) was solubilised in water to 10 mg/ml. For incubation with the cultures, it was diluted in the medium in the well to give a final concentration of 100 μg/ml and incubated with the cultures for 24 hours. The cultures were then examined microscopically using the CARV confocal system described for immunohistological analysis.

[2] = tested on: LN-18 cells; assay: 3D organotypic co-culture of LN-18-GFP tumour cells in rat brain cell matrix, treated at seeding; format: cell-based, human
Protocol: (§1) Human glioblastoma tumour cell lines, LN-18 (ATCC #CRL2610) were cultured and were transfected with either green fluorescent protein (GFP) expressing plasmids or red fluorescent protein (RFP) expressing plasmids. Cells were cultured and plated onto 6 well plates, at 1×10^5 cells per well, grown overnight and checked to see ˜75% confluence. The cells were transfected with pEGFP-N3 (BD Biosciences cat no #6080-1) using Gene Juice (Novagen cat no #70967-EA) as per manufacturer's protocols. 24 hours after transfection, the cells were selected with Geneticin (GIBCO cat no #10131-019), a population of selected cells were used in the experiments. A population of selected cells were cultured over prolonged periods of time with occasional selection to maintain a population of transfected cells. The expression of fluorescent proteins by the tumour cells allows monitoring of the tumour cells for proliferation and morphological changes. The transfected tumour cells (LN-18) were treated with trypsin/EDTA (sigma#T4299) to remove them from the flask, resuspended in culture media, The viable cells were counted using trypan blue exclusion The suspension was centrifuged at 1000 rpm/3 minutes and the resultant cell pellet resuspended to 50,000 cells/μl.
The organotypic cultures were produced by preparing dissociated cells from isolated rat cortex. P0 Wistar rats were sacrificed and the brains removed. The cortices were dissected into a Petri dish and chopped into small pieces and put into cold EBSS (GIBCO cat no #24010). The tissue pieces were then triturated very gently. The resultant cell suspension was filtered through a 100 μm mesh filter fitting into a 50 ml falcon tube. The suspension was centrifuged at 1000 rpm/3 minutes. The viable cells were counted using Trypan blue exclusion and the cell pellet resuspended to 50,000 cells/μl.
The transfected tumour cells and the rat primary cells prepared as explained in Examples 1 and 2 were mixed together to form a suspension of cells at 50,000 cells/μl.
5 μL of this mixed cell suspension was added to the top of a 0.4 micron Millipore culture insert (Millipore cat no # PICM0350) placed in lml cortical media (10% Hams F12, 20% FCS, 5% horse serum, 10 mM Hepes, 2 mM glutamine in DMEM) in a 6 well plate (NUNC). The plate was then incubated at 37° C. with 5% CO2 (FIG. 1A). During the first hours of this incubation the cells compact to form a denser culture by the removal of the liquid from the 5 μl cell suspension through capillary action via the semi-permeable membrane support (FIG. 1A).
Using these optimisation experiments the cells were mixed in the proportions of 95% rat brain cells and 5% LN-18 tumour cells both resuspended at 50,000 cells per μl.
(§2) Organotypic co-cultures were prepared as previously described. 2 hours after preparation, TMZ was added into the culture medium at various concentrations—see FIG. 6. The cultures are incubated in the culture medium+TMZ for up to 14 days with the compound being renewed as the media was changed. This allowed for monitoring of the effect of the TMZ over time.
(§3) For the monolayer cultures of tumour cells alone (2D) LN-18_GFP cells were plated into 24 well plates at a concentration of 10^4 cells per well and after 2 hours treated with the same concentrations of TMZ as the organotypic co-cultures. Control organotypic co-cultures and 2D cultures were also monitored to compare normal growth of the tumour cells with that after addition of the TMZ. For analysis of fluorescence, images were taken on a Leica DM1L microscope using Leica application suite software. The images collected were analyzed using the BD IPLAB imaging software and the data analysed using Graphpad Prism5 software. The error bars are the standard error of the mean (SEM). 24 images were used for each data point.

[3] = tested on: LN-18 cells; assay: 2D monolayer culture of LN-18-GFP tumour cells alone, fluorescence growth readout; format: cell-based, human; conditions: for IC50: Homo sapiens, LN-18, 2D culture, growth inhibition
Protocol: as §1, §3

[4] = tested on: GL-15; assay: 3D co-culture of GL-15 glioblastoma cells with brain cell matrix, growth inhibition; format: cell-based; conditions: GL-15, 3D co-culture with brain cell matrix
Protocol: (§4) Each of these cell lines was eGFP-labeled and mixed with rat brain cells to form 3D organotypic co-cultures. As indicated by the eGFP signal, all brain-derived tumour cell lines grew and formed clusters of tumour cells within the co-cultures (FIGS. 3B, C and D) in a very similar way as LN18 cells.
as §2
(§5) Similarly to what has been observed with LN-18 cells, efficacy of Temozolomide was increased from 2.5 to 12 fold in brain-co-cultures. Thus, the co-cultures of the invention reflect the clinical situation more closely than 2D cultures for various glioblastoma cell lines.

[5] = tested on: GL-15; assay: 2D culture of GL-15 glioblastoma cells, growth inhibition; format: cell-based; conditions: GL-15, 2D culture
Protocol: as §3, §5

[6] = tested on: A172; assay: 3D co-culture of A172 glioblastoma cells with brain cell matrix, growth inhibition; format: cell-based; conditions: Homo sapiens, A172, 3D co-culture with brain cell matrix
Protocol: as §4, §2, §5

[7] = tested on: U87; assay: 3D co-culture of U87 glioblastoma cells with brain cell matrix, growth inhibition; format: cell-based; conditions: Homo sapiens, U-87 MG, U87, 3D co-culture with brain cell matrix
Protocol: as §4, §2, §5

[8] = tested on: U87; assay: 2D culture of U87 glioblastoma cells, growth inhibition; format: cell-based; conditions: Homo sapiens, U-87 MG; U87, 2D culture; read-out: IC50 TMZ 2D
[9] = tested on: A172; assay: 2D culture of A172 glioblastoma cells, growth inhibition; format: cell-based; conditions: Homo sapiens, A172, 2D culture
Protocol: as §3, §5

[10] = tested on: established glioblastoma tumour cell clusters in GBM/brain co-cultures; assay: Tumour regression in established GBM/brain co-cultures, treatment started three days after seeding; format: cell-based
Text: Chemotherapies are given to patients with established tumours and are poorly effective.
Thus, also in terms of tumour regression, the properties of the co-cultures of the invention are representative of the clinical situation.

`NCC(=O)CCC(=O)O` [5-ALA, 5-aminolevulinic acid] was tested, and the “staining of tumour cell clusters” value ([1]; clusters of more than about 100 μm in diameter) was “strong specific 5-ALA staining” and the “staining of tumour cell clusters” value ([1]; clusters smaller than about 100 μm in diameter) was “stained more weakly”.

`Nc1ccn([C@@H]2O[C@H](CO)[C@@H](O)[C@@H]2O)c(=O)n1` [Ara-C, Cytosine arabinoside] was tested, and the “dose needed in 3D co-cultures relative to dose necessary in 2D cultures” value ([2]; 3D versus 2D) was “ten times”, the “concentration required to reduce tumour cell proliferation” value ([2]; GBM/Brain co-cultures (3D)) was 1 µM and the “effect on GBM cells” value ([2]; GBM/Brain co-cultures (3D), 10 μM) was “effectively killed”. The “concentration showing growth inhibition (anti-proliferative activity)” value ([3]; 2D cultures) was 100 nM.

Work on `Cn1nnc2c(C(N)=O)ncn2c1=O` [TMZ, Temozolomide] yielded an IC50 ([2]; Homo sapiens, LN-18, LN-18, 3D co-culture with rat brain cells, growth inhibition, read-out: IC50 TMZ 3D) of under 5000 nM, an IC50 ([2]; LN-18, 3D co-culture with rat brain cells, growth inhibition, read-out: IC50 TMZ 3D) of about 4000 nM and an IC50 ([4]; read-out: IC50 TMZ 3D) of about 20000 nM. For the same compound, the IC50 ([5]; read-out: IC50 TMZ 2D) was over 50000 nM, the IC50 ([6]; A 172, read-out: IC50 TMZ 3D) was about 5000 nM and the IC50 ([7]; read-out: IC50 TMZ 3D) was about 1000 nM. For the same compound, the IC50 [8] was about 12000 nM, the IC50 ([9]; A 172, read-out: IC50 TMZ 2D) was about 25000 nM and the IC50 ([3]; read-out: IC50 TMZ 2D) was over 10000 nM.

For `CC(=O)O[C@H]1C(=O)[C@@]2(C)[C@H]([C@H](OC(=O)c3ccccc3)[C@]3(O)C[C@H](OC(=O)[C@H](O)[C@@H](NC(=O)c4ccccc4)c4ccccc4)C(C)=C1C3(C)C)[C@]1(OC(C)=O)CO[C@@H]1C[C@@H]2O` [Taxol, Paclitaxel], the “effect on tumour cell growth” value ([2]; 3D, taxol 25 nM, treatment started at seeding) was “cell growth was stopped”, the “effect on cell growth versus control cultures (average % fluorescence)” value ([2]; 3D, taxol 25, 50 and 100 nM) was “significant reduction in cell growth” and the “concentration required to achieve tumour clusters shrinkage” value ([2]; 3D, treatment started at seeding) was 100 nM. For the same compound, the IC50 ([2]; Homo sapiens, LN-18, read-out: IC50 Taxol 3D, LN-18, 3D co-culture with rat brain cells, growth inhibition) was about 25 nM, the IC50 ([4]; read-out: IC50 Taxol 3D) was 100 nM and the “effect on fluorescence intensity of established tumour cell clusters” value ([10]; taxol 25 nM) was “no effect”. For the same compound, the “effect on fluorescence intensity of established tumour cell clusters” value ([10]; taxol 100 nM and 50 nM) was “marginal effects”, the IC50 ([5]; read-out: IC50 Taxol 2D) was about 4 nM and the IC50 ([6]; A 172, read-out: IC50 Taxol 3D) was about 50 nM. The IC50 ([7]; read-out: IC50 Taxol 3D) was about 60 nM, the IC50 ([9]; A 172, read-out: IC50 Taxol 2D) was about 7 nM and the “effect on tumour cell number” value ([3]; 2D, Taxol 20 nM) was “reduction in cell number to almost zero”. The “effect on tumour cell number (average % fluorescence)” value ([3]; 2D, taxol 5 nM) was “small but significant reduction in cell number”, the “effect on tumour cell number (average % fluorescence)” value ([3]; 2D, taxol 20 and 50 nM) was “no increase in cell number” and the IC50 ([3]; read-out: IC50 Taxol 2D) was about 7 nM.
